{"source": "patent US11318113B2", "about": "“Compounds for the treatment of diseases linked to mitochondrial reactive oxygen species (ROS) production” (OP2 DRUGS, priority 2015, dated 2022)", "key": {"[1]": {"tested_on": "isolated mitochondria from rat heart", "test": "Mitochondrial respiration / oxidative phosphorylation (oxygraph)", "format": "biochemical", "conditions": "AOL 5 to 80 μM", "procedure": "Male Wistar rats (250-325 g; obtained from Janvier Labs, Le Genest-Saint-Isle, France) were killed by stunning and cervical dislocation, and the heart was quickly removed and washed in cold isolation medium containing 100 mM sucrose, 180 mM KCl, 50 mM Tris, 5 mM MgCl2, 10 mM EDTA, and 0.1% (w/v) deffated BSA (pH 7.2).\nIsolation of heart mitochondria was performed in a cold chamber. Before homogenization, hearts (about 1.5 g) were minced with scissors and treated for 5 min in 5 mL of the same medium supplemented with protease (2 mg of bacterial proteinase type XXIV per mL of isolation buffer) with stirring. The tissue suspension was poured into a 50-ml glass Potter homogenizer, diluted with 20 mL of isolation buffer, then homogenized for 3 min using a motorized Teflon pestle. The homogenate was filtered through bolting cloth (Sefar Nitex) to remove debris, and centrifuged at 8,000 g for 10 minutes. The resulting pellet was rinsed with 5 mL of isolation buffer, resuspended in 25 mL of the same buffer, then subjected to low speed centrifugation (400 g) for 8 min. The resulting supernatant was centrifuged twice at 7,000 g for 15 min to yield a washed mitochondrial pellet that was gently resuspended in 150 μL of isolation buffer. Protein concentration was determined by the Bradford method (Sigma, kit # B6916) using BSA as standard. Mitochondria were kept on ice at a final concentration of 40-50 mg/mL for less than 5 h.\nOxygen consumption rates of heart mitochondria (0.1 mg/mL), incubated in the absence or presence of AOL at increasing doses (from 0 to 80 μM final concentration), were recorded polarographically under constant stirring at 25° C. using a high resolution oximeter (Oxygraph-2K, Oroboros Instruments, Austria). The respiration medium consisted in 140 mM sucrose, 100 mM KCl, 1 mM EGTA, 20 mM MgCl2, 10 mM KH2PO4, and 1 g/L (w/v) BSA essentially fatty acid free (pH 7.2).\nThis has been carried out by using the now classical oxygraph method. Mitochondria were first incubated with various AOL concentrations (5 to 80 μM) then respiratory substrate was added (substrate state, black curve), followed by a saturating ADP concentration to get the maximal oxidative phosphorylation rate (grey curve), and finally the addition of atractyloside (ATR) which inhibits the ADP/ATP translocator and gives the mitochondrial leak rate under non-phosphorylating conditions (FIG. 1A). The other panels of FIG. 1B-D presents the results obtained with different respiratory substrate combinations: glutamate+malate which feed electrons to complex I, succinate (+rotenone) for complex II and glutamate+malate+succinate to feed electrons to both complexes. […]"}, "NAD(P)H oxidase": {"tested_on": "NAD(P)H oxidase", "test": "NAD(P)H oxidase ROS/H2O2 production control test without mitochondria", "format": "biochemical", "conditions": "no mitochondria; NAD(P)H oxidase + NADH; results not shown"}, "[2]": {"tested_on": "diet-induced obese (DIO) mice", "test": "Chronic ip treatment of diet-induced obese mice on high-fat diet", "format": "in vivo, mouse", "conditions": "for AUC of blood glucose during insulin tolerance test (ITT): vehicle 12812.50±750.35", "procedure": "The aim of the study was to determine whether the compound AOL, administered daily at the doses of 5 mg/kg and 10 mg/kg for up to five weeks by intraperitoneal (ip) daily administration in diet-induced obese (DIO) mice fed with a high-fat diet (HFD), modifies food intake, body weight, adiposity and glucose metabolism.\nMice were fed ad libitum with a HFD (60% of calories from fat, mostly lard) for twelve weeks before the pharmacological study begun. Animals received AOL or its vehicle by intraperitoneal (ip) administration and were maintained on HFD for the length of the study. Food intake and body weight were measured daily and recorded for up to three consecutive weeks.\nThirty 7-weeks-old male C57/B16J mice arrived to the laboratory on 25 Feb. 2016 and underwent a first in vivo body composition analysis (Echo MRI 900, EchoMRI Systems) after 1 week of adaptation to the experimental housing room. After this first MRI analysis, animals were fed a high-fat diet (HFD) ad libitum for a period of twelve weeks. Thereafter, they underwent a second MRI analysis and were distributed into 3 experimental groups of equivalent body weight and body composition.\nOnce the pharmacological treatment started (day 1), food intake (FI) and body weight (BW) were measured daily before the dark phase in animals housed in their home cage. Spillage of food was checked daily. The food consumed was calculated by subtracting the food left in the hoppers from the initial pre-weighted amount. FI and BW were measured for three consecutive weeks. Afterwards animals underwent a third MRI analysis in order to observe potential effects of the treatment onto the body composition (changes in fat and lean mass), followed by a glucose tolerance test (GTT) and an insulin tolerance test (ITT). Mice received daily ip administration of AOL or its vehicle for a total length of five weeks, until they were sacrificed.\nA nuclear echo magnetic resonance imaging whole-body composition analyzer (Echo MRI 900; EchoMedical Systems) was used to repeatedly assess body fat and lean mass in conscious mice.\nAnimals were injected ip with 1.5 g/kg of D-Glucose (Sigma-Aldrich) for the GTT or with 0.5 U/kg of insulin (Humulin, Lilly, France) for the ITT. For the GTT and the ITT, animals were fasted overnight. The tests were conducted the following morning. Blood samples were taken from the tail vein at different time points (0, 15, 30, 60, 90 and 120 minutes after the ip administration of glucose or insulin) and glucose concentration was measured using glucose sticks (OneTouch Vita, Lifescan France, Issy les Moulineaux, France).\nAt sacrifice, blood samples were collected, blood glucose was rapidly assessed using glucose sticks and blood samples were then centrifuged at 3000 rpm for 15 minutes. The obtained plasma was stored at −80° C. for subsequent measurement of insulin, which was carried out by performing an ELISA (kit from Mercodia, Uppsala, Sweden), according to the manufacturer's instructions."}, "[3]": {"conditions": "stated as known; cited from earlier work"}}}
{"molecule": "COc1ccc(-c2cc(=S)ss2)cc1", "note": "[AOL, 5-(4-methoxyphenyl)-3H-1,2-dithiole-3-thione]", "values": [{"measurement": "mitochondrial oxidative phosphorylation and inner membrane integrity (leak rate, after ATR addition)", "setting": "[1]", "value": "absence of effect"}, {"measurement": "mitochondrial respiration under the different energetic states", "setting": "[1]; glutamate and malate", "value": "no statistical differences"}, {"measurement": "mitochondrial respiration under the different energetic states", "setting": "[1]; glutamate, malate and succinate", "value": "no statistical differences"}, {"measurement": "mitochondrial respiration under the different energetic states", "setting": "[1]; succinate (+rotenone)", "value": "no statistical differences"}, {"measurement": "ROS/H2O2 production by NAD(P)H oxidase", "setting": "NAD(P)H oxidase", "value": "does not inhibit"}, {"measurement": "blood glucose levels", "setting": "[2]; 2-hour fasted mice, after five weeks of treatment", "value": "tended to decrease"}, {"measurement": "body weight and % change of body weight", "setting": "[2]; 5 and 10 mg/kg ip daily", "value": "did not have a significant effect"}, {"measurement": "AUC of blood glucose during insulin tolerance test (ITT)", "setting": "[2]; AOL 5 mg/kg", "value": "15006.56±1139.69"}, {"measurement": "action of insulin on circulating glucose levels during an ITT", "setting": "[2]; AOL 10 mg/kg", "value": "significantly blunted"}, {"measurement": "AUC of blood glucose during insulin tolerance test (ITT)", "setting": "[2]; AOL 10 mg/kg, p=0.0107 vs vehicle", "value": "18168.33±1562.90"}, {"measurement": "lean mass", "setting": "[2]; after three weeks, 5 and 10 mg/kg ip daily", "value": "did not have any effect"}, {"measurement": "fat mass", "setting": "[2]; after three weeks, 5 and 10 mg/kg ip daily, p=0.13", "value": "tended to reduce"}, {"measurement": "body weight and food intake", "setting": "[2]; chronic daily administration, data not shown", "value": "tended to decrease"}, {"measurement": "bioavailability", "setting": "[3]", "value": "very short"}]}
